Source: US9532977B2, “Controlled release oral dosage forms of poorly soluble drugs and uses thereof” (Celgene Corporation, priority 2010, dated 2017)
Converted amounts (≈) assume the structure as drawn.

Assays:
[1] = aqueous room temperature solubility; format: physicochemical; details: for solubility: water, aqueous, room temperature
Description: (§1) The aqueous room temperature solubilities of Compounds A and Compound B is 6.9 μg/mL and 2.0 μg/mL, respectively. Daily doses of Compound A ranging from 10 mg to 100 mg per day have been administered to approximately 1000 subject in clinical studies to date. […] Therefore a controlled release dosage is clearly needed for Compound A.

[2] = pharmacokinetic parameters of Compound A in monkeys; details: monkey, in vivo, 10 mg/kg PO
Description: as §1

**Q.** Which results are given for CCOc1cc([C@@H](CS(C)(=O)=O)N2C(=O)c3cccc(NC(C)=O)c3C2=O)ccc1OC [Compound A, (S)—N-{2-[1-(3-ethoxy-4-methoxy-phenyl)-2-methanesulfonylethyl]-1,3-dioxo-2,3-dihydro-1H-isoindol-4-yl}acetamide]?
**A.** aqueous solubility of amorphous form compared to crystalline forms ([1]; amorphous form vs crystalline forms): greater aqueous solubility; solubility [1]: 6.9 µg/mL (≈ 15 µM); half-life [2]: ~2 h

**Q.** Which solubility [1] does the source give for CCOc1cc([C@@H](CS(C)(=O)=O)N2Cc3cccc(NC(=O)C4CC4)c3C2=O)ccc1OC [Compound B, cyclopropanecarboxylic acid {2-[(1S)-1-(3-ethoxy-4-methoxy-phenyl)-2-methanesulfonyl-ethyl]-3-oxo-2,3-dihydro-1H-isoindol-4-yl}-amide] here?
**A.** 2 µg/mL (≈ 4.23 µM)
